Drawing on patent publication US10851093B2, “Tyrosine kinase inhibitors” (Rigel Pharmaceuticals, Inc., priority 2018, dated 2020), this text covers EC50 for 16 compounds.

A word on the EC50: it is the concentration needed to bring the measured effect to its halfway point. A lower EC50 goes with greater potency.

One experiment deals with T1, Axl (Homo sapiens, UniProt P30530).
T1 construct: Seed HUVECs (10K cells/well) in EBM-2 complete media; host or cells: HUVEC
T1 sequence (P30530 26-894): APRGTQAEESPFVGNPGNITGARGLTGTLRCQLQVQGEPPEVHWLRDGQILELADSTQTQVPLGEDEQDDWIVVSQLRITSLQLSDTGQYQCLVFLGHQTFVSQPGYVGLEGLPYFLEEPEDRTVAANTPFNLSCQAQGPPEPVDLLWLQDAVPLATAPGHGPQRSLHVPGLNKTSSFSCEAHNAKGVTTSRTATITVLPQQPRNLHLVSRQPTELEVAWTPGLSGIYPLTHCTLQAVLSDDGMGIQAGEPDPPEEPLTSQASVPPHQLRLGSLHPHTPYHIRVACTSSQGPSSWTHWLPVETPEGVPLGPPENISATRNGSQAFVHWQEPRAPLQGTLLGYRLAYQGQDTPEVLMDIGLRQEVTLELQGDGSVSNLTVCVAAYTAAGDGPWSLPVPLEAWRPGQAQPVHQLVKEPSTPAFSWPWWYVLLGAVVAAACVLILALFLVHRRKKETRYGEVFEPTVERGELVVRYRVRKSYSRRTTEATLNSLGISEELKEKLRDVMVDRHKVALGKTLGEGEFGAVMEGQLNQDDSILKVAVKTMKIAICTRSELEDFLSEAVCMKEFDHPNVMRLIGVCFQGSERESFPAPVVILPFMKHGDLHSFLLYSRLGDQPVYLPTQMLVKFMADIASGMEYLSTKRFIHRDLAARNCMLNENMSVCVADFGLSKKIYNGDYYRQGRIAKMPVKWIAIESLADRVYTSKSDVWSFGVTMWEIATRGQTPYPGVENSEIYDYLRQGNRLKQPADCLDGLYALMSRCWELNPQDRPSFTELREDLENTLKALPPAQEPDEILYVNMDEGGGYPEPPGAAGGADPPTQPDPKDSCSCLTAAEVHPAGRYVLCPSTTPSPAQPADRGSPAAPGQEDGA
Briefly: Phospho-AKT HTRF, HUVEC, Axl ABX-L, 8 pt. The experiment is classed as cell-based. The conditions noted are these: HUVEC cells, pAkt(Ser473) HTRF, Axl ABX-L stimulation. The protocol: [The source words this procedure for another target and reports this target under the same test.] (§1) Example 13: PAKT HTRF-HUVEC Assay
(§2) Seed HUVECs (10K cells/well) in EBM-2 complete media (EBM-2 basal medium plus EGM-2 BulletKit supplements) overnight at 37° C., 5% CO2 in Costar 96-well white clear-bottom plates. Remove culture media and starve cells for 3-4 hours in 50 μL/well EBM-2 basal medium. Perform serial dilution of compounds in DMSO from 2.5 mM in 4-fold dilutions, and then dilute 1:125 in EBM-2 basal media. Mix 50 μL/well 2× compounds with 50 μL/well HUVECs in duplicate in Costar 96-well white clear-bottom plates. Incubate plates for 1 hour at 37° C., 5% CO2. Cross-link anti-human MerTK antibody to Biotin-SP-conjugated anti-mouse IgG antibody (1:1) to give final concentrations of 5 μg/mL of anti-human MerTK-XL. Stimulate HUVECs with 25 μL/well 5× anti-human MerTK-XL to give final concentrations of 1 ug/mL for 10 minutes at 37° C., 5% CO2. Completely remove media and lyse HUVECs with 40 uL:WELL per well of Cisbio HTRF 1× lysis buffer. Performed pAkt(Ser473) HTRF assay in ProxiPlate-384 Plus, white 384-shallow well microplate according to the vendor protocol and read plates with a SpectralMax Paradigm plate reader. Enter the HTRF values into Athena (Rigel) for curve fitting, EC50 calculation, and database storage.

Another experiment concerns the target T2, MerTK (Homo sapiens, UniProt Q12866).
T2 construct: Seed HUVECs (10K cells/well) in EBM-2 complete media; host or cells: HUVEC
T2 sequence (Q12866 21-999): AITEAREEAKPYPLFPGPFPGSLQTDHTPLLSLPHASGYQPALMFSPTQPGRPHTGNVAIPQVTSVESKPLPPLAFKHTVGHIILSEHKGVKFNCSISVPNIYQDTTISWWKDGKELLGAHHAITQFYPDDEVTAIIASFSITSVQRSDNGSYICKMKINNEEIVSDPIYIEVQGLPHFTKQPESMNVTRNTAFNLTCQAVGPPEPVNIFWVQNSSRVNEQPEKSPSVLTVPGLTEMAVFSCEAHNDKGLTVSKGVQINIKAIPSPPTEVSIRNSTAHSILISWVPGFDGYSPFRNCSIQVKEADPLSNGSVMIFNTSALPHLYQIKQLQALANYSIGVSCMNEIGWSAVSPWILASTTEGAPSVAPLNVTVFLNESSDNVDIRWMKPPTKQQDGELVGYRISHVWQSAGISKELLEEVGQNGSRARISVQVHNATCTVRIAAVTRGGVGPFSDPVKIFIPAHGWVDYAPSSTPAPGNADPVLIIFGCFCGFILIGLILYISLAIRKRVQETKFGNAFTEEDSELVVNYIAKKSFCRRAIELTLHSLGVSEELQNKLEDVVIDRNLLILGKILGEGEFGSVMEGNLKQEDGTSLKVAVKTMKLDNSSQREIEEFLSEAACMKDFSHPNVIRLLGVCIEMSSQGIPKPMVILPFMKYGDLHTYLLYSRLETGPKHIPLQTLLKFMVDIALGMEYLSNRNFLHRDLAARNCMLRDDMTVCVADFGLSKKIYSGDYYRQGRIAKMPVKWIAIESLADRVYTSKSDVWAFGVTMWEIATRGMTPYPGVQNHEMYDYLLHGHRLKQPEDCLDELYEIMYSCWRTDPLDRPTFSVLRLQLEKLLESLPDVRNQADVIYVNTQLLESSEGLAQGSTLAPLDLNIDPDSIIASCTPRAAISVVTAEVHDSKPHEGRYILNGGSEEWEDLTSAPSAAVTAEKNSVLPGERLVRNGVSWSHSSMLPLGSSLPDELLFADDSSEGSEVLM
Briefly: Phospho-AKT HTRF, HUVEC, Mer-XL, 8 pt (pAKT HTRF-HUVEC assay, anti-human MerTK-XL stimulation). It counts as cell-based. Particulars: HUVEC cells, pAkt(Ser473) HTRF, anti-human MerTK-XL stimulation 1 ug/mL 10 minutes. The protocol: as §1, §2
(In general: TR-FRET usually uses a lanthanide donor and a delayed reading to cut background.)

Take `COc1cc2c(Oc3ccc(NC(=O)c4cccc(-c5ccccc5)n4)nc3)ccnc2cc1OCCCN1CCOCC1` [Compound 10, N-(5-((6-Methoxy-7-(3-morpholinopropoxy)quinolin-4-yl)oxy)pyridin-2-yl)-6-phenylpicolinamide]: the figures for the concentration for a half-maximal effect (EC50) on Axl and at MerTK were 12.9 nM and 4.9 nM, respectively.
Turning to `COc1cc2c(Oc3ccc(NC(=O)c4cccc(N5CCOCC5)n4)nc3)ccnc2cc1OCCCN1CCOCC1` [Compound 25, N-(5-((6-methoxy-7-(3-morpholinopropoxy)quinolin-4-yl)oxy)pyridin-2-yl)-6-morpholinopicolinamide], the results for the EC50 at Axl and on MerTK were 112 nM and 14.3 nM, respectively.
As for `COc1cc2c(Oc3ccc(NC(=O)c4cc(F)ccn4)nc3)ccnc2cc1OCCCN1CCOCC1` [Compound 31, 4-Fluoro-N-(5-((6-methoxy-7-(3-morpholinopropoxy)quinolin-4-yl)oxy)pyridin-2-yl)picolinamide], the EC50 on Axl came to 739 nM; on MerTK, 311 nM.
As for `COc1cc2c(Oc3ccc(NC(=O)c4cc(C(F)(F)F)ccn4)nc3)ccnc2cc1OCCCN1CCOCC1` [Compound 34, N-(5-((6-Methoxy-7-(3-morpholinopropoxy)quinolin-4-yl)oxy)pyridin-2-yl)-4-(trifluoromethyl)picolinamide], the EC50 at Axl amounted to 327 nM; on MerTK it was 183 nM.
On to `COc1cc2c(Oc3ccc(NC(=O)c4nc5ccccc5c(=O)[nH]4)nc3)ccnc2cc1OCCCN1CCOCC1` [Compound 12, N-(5-((6-Methoxy-7-(3-morpholinopropoxy)quinolin-4-yl)oxy)pyridin-2-yl)-4-oxo-3,4-dihydroquinazoline-2-carboxamide], for which the EC50 at Axl came out at 99.4 nM; on MerTK it was 72.1 nM.
Taken in the same sequence, the figures for `COc1cc2c(Oc3ccc(NC(=O)c4cc(-c5ccccc5)ccn4)nc3)ccnc2cc1OCCCN1CCOCC1` [Compound 3, N-(5-((6-Methoxy-7-(3-morpholinopropoxy)quinolin-4-yl)oxy)pyridin-2-yl)-4-phenylpicolinamide] were 162 nM and 98.7 nM.
Turning to `COc1cc2c(Oc3ccc(NC(=O)c4cccc(N5CCC(O)CC5)n4)nc3)ccnc2cc1OCCCN1CCOCC1` [Compound 24, 6-(4-hydroxypiperidin-1-yl)-N-(5-((6-methoxy-7-(3-morpholinopropoxy)quinolin-4-yl)oxy)pyridin-2-yl)picolinamide], the results for the EC50 on Axl and on MerTK were 742 nM and 654 nM, respectively.
The matching figures for `COc1cc2c(Oc3ccc(NC(=O)c4ncc(-c5ccccc5)s4)nc3)ccnc2cc1OCCCN1CCOCC1` [Compound 48, N-(5-((6-methoxy-7-(3-morpholinopropoxy)quinolin-4-yl)oxy)pyridin-2-yl)-5-phenylthiazole-2-carboxamide]: 344 nM and 238 nM.
Take `COc1cc2c(Oc3ccc(NC(=O)c4ncc(N5CCCCC5)s4)nc3)ccnc2cc1OCCCN1CCOCC1` [Compound 47, N-(5-((6-methoxy-7-(3-morpholinopropoxy)quinolin-4-yl)oxy)pyridin-2-yl)-5-(piperidin-1-yl)thiazole-2-carboxamide]: the EC50 came out at 130 nM at Axl and 119 nM at MerTK.
Take `COc1cc2c(Oc3ccc(NC(=O)c4cccc(N5CCCC5)n4)nc3)ccnc2cc1OCCCN1CCOCC1` [Compound 26, N-(5-((6-methoxy-7-(3-morpholinopropoxy)quinolin-4-yl)oxy)pyridin-2-yl)-6-(pyrrolidin-1-yl)picolinamide]: the values for the EC50 at Axl and at MerTK were 32 nM and 7 nM, respectively.
For the compound `COc1cc2c(Oc3ccc(NC(=O)c4nc(-c5ccccc5)c5c(n4)C4CCN5CC4)nc3)ccnc2cc1OCc1ccccc1` [Compound 37, N-(5-((7-(benzyloxy)-6-methoxyquinolin-4-yl)oxy)pyridin-2-yl)-4-phenyl-7,8-dihydro-6H-5,8-ethanopyrido[3,2-d]pyrimidine-2-carboxamide], the values for the EC50 at Axl and on MerTK were 38.4 nM and 63.6 nM, respectively.
As to `COc1cc2c(Oc3ccc(NC(=O)c4cc(N5CCC(c6ccccc6)CC5)ccn4)nc3)ccnc2cc1OCCCN1CCOCC1` [Compound 17, N-(5-((6-methoxy-7-(3-morpholinopropoxy)quinolin-4-yl)oxy)pyridin-2-yl)-4-(4-phenylpiperidin-1-yl)picolinamide], the EC50 on Axl stood at 1370 nM; at MerTK, 1640 nM.
Consider `COc1cc2c(Oc3ccc(NC(=O)c4nccc(-c5ccccc5)n4)nc3)ccnc2cc1OCCCN1CCOCC1` [Compound 4, N-(5-((6-Methoxy-7-(3-morpholinopropoxy)quinolin-4-yl)oxy)pyridin-2-yl)-4-phenylpyrimidine-2-carboxamide], for which the EC50 on Axl was found to be 5 nM; on MerTK, 3.9 nM.
Regarding `COc1cc2c(Oc3ccc(NC(=O)c4csc(N5CCCCC5)n4)nc3)ccnc2cc1OCCCN1CCOCC1` [Compound 46, N-(5-((6-methoxy-7-(3-morpholinopropoxy)quinolin-4-yl)oxy)pyridin-2-yl)-2-(piperidin-1-yl)thiazole-4-carboxamide], the EC50 at Axl came to 20.9 nM; at MerTK it was 12.8 nM.
On to `COc1cc2c(Oc3ccc(NC(=O)c4cc(N5CCCC5)ccn4)nc3)ccnc2cc1OCCCN1CCOCC1` [Compound 16, N-(5-((6-methoxy-7-(3-morpholinopropoxy)quinolin-4-yl)oxy)pyridin-2-yl)-4-(pyrrolidin-1-yl)picolinamide], for which the EC50 on Axl worked out at 43.2 nM; at MerTK, 27.9 nM.
Taken in the same sequence, the figures for `COc1cc2c(Oc3ccc(NC(=O)c4cc(N5CC6(CCOCC6)C5)ccn4)nc3)ccnc2cc1OCCCN1CCOCC1` [Compound 18, N-(5-((6-methoxy-7-(3-morpholinopropoxy)quinolin-4-yl)oxy)pyridin-2-yl)-4-(7-oxa-2-azaspiro[3.5]nonan-2-yl)picolinamide] were 114 nM and 98 nM.
